Assay [1] concerns MDA-MB-468. Briefly: Anticancer activity against human MDA-MB-468 cells assessed as cell growth inhibition incubated for 48 hrs by MTT assay. The assay is classed as functional, cell-based. The conditions noted are these: MDA-MB-468, 48 h.
Assay [2] concerns MDA-MB-231. Briefly: cells. Particulars: Homo sapiens, MDA-MB-231, 48 h.
The test system of assay [3] is BT-20. Briefly: Anticancer activity against human BT-20 cells assessed as cell growth inhibition by MTT assay. The assay is classed as functional, cell-based.
The test system of assay [4] is MDA-MB-231. Briefly: Anticancer activity against human MDA-MB-231 cells assessed as cell growth inhibition incubated for 24 hrs by CCK8 assay. The conditions noted are these: MDA-MB-231, 24 h. In kind it is functional, cell-based.
For assay [5], the system named is MDA-MB-436. The assay can be described thus: Anticancer activity against human MDA-MB-436 cells assessed as cell growth inhibition incubated for 24 hrs by CCK8 assay. The assay is classed as functional, cell-based. The conditions noted are these: MDA-MB-436, 24 h.
The test system of assay [6] is BT-549. Briefly: Anticancer activity against human BT-549 cells assessed as cell growth inhibition incubated for 24 hrs by CCK8 assay. The assay is classed as functional, cell-based. The conditions noted are these: BT-549, 24 h.
For assay [7], the system named is SUM185PE. Briefly: Anticancer activity against human SUM185PE cells assessed as cell growth inhibition incubated for 6 days by CellTiter96 analysis. In kind it is functional, cell-based. Particulars: 144 h.
The test system of assay [8] is MDA-MB-231. The assay can be described thus: Anticancer activity against human MDA-MB-231 cells assessed as cell growth inhibition incubated for 72 hrs by CellTiter-Blue assay. In kind it is functional, cell-based. The conditions noted are these: MDA-MB-231, 72 h.
The test system of assay [9] is HCC1806. The assay can be described thus: Anticancer activity against human HCC1806 cells assessed as cell growth inhibition incubated for 72 hrs by CellTiter-Blue assay. Particulars: HCC1806, 72 h. In kind it is functional, cell-based.
The target in assay [10] is Aurora kinase A (Homo sapiens, UniProt O14965). The assay can be described thus: Inhibition of human Aurora A kinase expressed in MDA-MB-468 cells. In kind it is cell-based.
Sequence of Aurora kinase A (O14965 whole entry): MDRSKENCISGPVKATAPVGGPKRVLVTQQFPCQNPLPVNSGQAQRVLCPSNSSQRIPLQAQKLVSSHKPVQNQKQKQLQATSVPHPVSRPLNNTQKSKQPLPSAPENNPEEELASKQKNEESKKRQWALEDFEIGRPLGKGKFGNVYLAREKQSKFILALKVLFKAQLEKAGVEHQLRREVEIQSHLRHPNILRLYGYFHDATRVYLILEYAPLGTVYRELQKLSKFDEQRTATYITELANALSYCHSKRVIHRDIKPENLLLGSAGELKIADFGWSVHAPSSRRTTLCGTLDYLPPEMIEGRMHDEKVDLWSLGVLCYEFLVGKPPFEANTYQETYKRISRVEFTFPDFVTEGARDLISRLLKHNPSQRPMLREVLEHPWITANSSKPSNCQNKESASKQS
Assay [11] addresses T1, Aurora kinase B (Homo sapiens, UniProt Q96GD4). Briefly: Inhibition of human Aurora B kinase expressed in MDA-MB-468 cells. In kind it is cell-based.
Assay [12] addresses T1, Aurora kinase B. The assay can be described thus: Inhibition of human Aurora B kinase expressed in SUM149 cells. The assay is classed as cell-based, SUM149PT.
Assay [13] addresses T1, Aurora kinase B. The assay can be described thus: Inhibition of human Aurora B kinase expressed in MDA-MB-231 cells. In kind it is cell-based.
Assay [14] concerns the target T2, Insulin-like growth factor 1 receptor (Homo sapiens, UniProt P08069). Briefly: Inhibition of human IGF1R expressed in MDA-MB-468 cells. In kind it is cell-based.
The target of assay [15] is T2, Insulin-like growth factor 1 receptor. Briefly: Inhibition of human IGF1R expressed in SUM149 cells. In kind it is cell-based, SUM149PT.
Assay [16] has as its target N-lysine methyltransferase SMYD2 (Homo sapiens, UniProt Q9NRG4). Briefly: Inhibition of human SMYD2 by western blot assay.
Assay [17] concerns Hs-578T. The assay can be described thus: Anticancer activity against human Hs-578T cells assessed as cell growth inhibition incubated for 24 hrs by ALDEFLUOR assay. In kind it is functional, cell-based.
Assay [18] relates to MDA-MB-231. Briefly: cells. The conditions noted are these: Homo sapiens, MDA-MB-231, 24 h.
Assay [19] concerns MDA-MB-231. The assay can be described thus: Anticancer activity against human MDA-MB-231 cells assessed as cell growth inhibition incubated for 3 to 5 days by MTT assay. The assay is classed as functional, cell-based.
The test system of assay [20] is MDA-MB-231. Briefly: Anticancer activity against human MDA-MB-231 cells assessed as cell growth inhibition. In kind it is functional, cell-based.
For assay [21], the system named is MDA-MB-468. The assay can be described thus: Anticancer activity against human MDA-MB-468 cells assessed as cell growth inhibition. In kind it is functional, cell-based.
Assay [22] concerns HCC70. Briefly: Anticancer activity against human HCC70 cells assessed as cell growth inhibition. The assay is classed as functional, cell-based.
Assay [23] deals with HCC1187. The assay can be described thus: Anticancer activity against human HCC1187 cells assessed as cell growth inhibition. In kind it is functional, cell-based.
Assay [24] concerns HCC1143. The assay can be described thus: Anticancer activity against human HCC1143 cells assessed as cell growth inhibition. In kind it is functional, cell-based.
The test system of assay [25] is HCC1806. Briefly: Anticancer activity against human HCC1806 cells assessed as cell growth inhibition. The assay is classed as functional.
Assay [26] concerns HCC38. The assay can be described thus: Anticancer activity against human HCC38 cells assessed as cell growth inhibition by MTT assay. In kind it is functional, cell-based.
For assay [27], the system named is MDA-MB-468. Briefly: Anticancer activity against human MDA-MB-468 cells assessed as cell growth inhibition by MTT assay. The assay is classed as functional, cell-based.
Assay [28] concerns MDA-MB-231. Briefly: cells. Particulars: Homo sapiens.
Assay [29] concerns HCC1937. The assay can be described thus: Anticancer activity against human HCC1937 cells assessed as cell growth inhibition. In kind it is functional, cell-based.
Assay [30] concerns SUM149PT. Briefly: Anticancer activity against human SUM149 cells assessed as cell growth inhibition. The assay is classed as functional, cell-based.
Assay [31] has as its system Hs-578T. The assay can be described thus: Anticancer activity against human Hs-578T cells assessed as cell growth inhibition. The assay is classed as functional, cell-based.
In assay [32] the test system is MCF7. Briefly: Anticancer activity against human MCF7 cells assessed as cell growth inhibition. The assay is classed as functional, cell-based.
Assay [33] deals with HCC38. Briefly: Anticancer activity against human HCC38 cells assessed as cell growth inhibition. The assay is classed as functional, cell-based.
Assay [34] deals with MDA-MB-453. The assay can be described thus: Anticancer activity against human MDA-MB-453 cells assessed as cell growth inhibition. The assay is classed as functional, cell-based.
The target of assay [35] is Thioredoxin (Homo sapiens, UniProt P10599). Briefly: Inhibition of human TXN incubated for 30 mins by fluorescence based plate reader analysis.
Sequence of Thioredoxin (P10599 whole entry): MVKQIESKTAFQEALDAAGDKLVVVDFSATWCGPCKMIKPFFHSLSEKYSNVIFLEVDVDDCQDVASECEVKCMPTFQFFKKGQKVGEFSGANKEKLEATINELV
Assay [36] deals with MDA-MB-231. The assay can be described thus: Anticancer activity against human MDA-MB-231 cells assessed as cell growth inhibition incubated for 4 to 10 days by MTT assay. The assay is classed as functional, cell-based.
For assay [37], the system named is Hs-578T. Briefly: Anticancer activity against human Hs-578T cells assessed as cell growth inhibition incubated for 4 to 10 days by MTT assay. The assay is classed as functional, cell-based.
Assay [38] relates to BT-549. The assay can be described thus: Anticancer activity against human BT-549 cells assessed as cell growth inhibition incubated for 4 to 10 days by MTT assay. The assay is classed as functional, cell-based.
The test system of assay [39] is HCC1806. Briefly: Anticancer activity against human HCC1806 cells assessed as cell growth inhibition incubated for 4 to 10 days by MTT assay. The assay is classed as functional, cell-based.
In assay [40] the test system is HCC38. Briefly: Anticancer activity against human HCC38 cells assessed as cell growth inhibition incubated for 4 to 10 days by MTT assay. In kind it is functional, cell-based.

Each structure is given as a SMILES string. Converted amounts (≈) assume the structure as drawn.

T1 sequence (Q96GD4 whole entry): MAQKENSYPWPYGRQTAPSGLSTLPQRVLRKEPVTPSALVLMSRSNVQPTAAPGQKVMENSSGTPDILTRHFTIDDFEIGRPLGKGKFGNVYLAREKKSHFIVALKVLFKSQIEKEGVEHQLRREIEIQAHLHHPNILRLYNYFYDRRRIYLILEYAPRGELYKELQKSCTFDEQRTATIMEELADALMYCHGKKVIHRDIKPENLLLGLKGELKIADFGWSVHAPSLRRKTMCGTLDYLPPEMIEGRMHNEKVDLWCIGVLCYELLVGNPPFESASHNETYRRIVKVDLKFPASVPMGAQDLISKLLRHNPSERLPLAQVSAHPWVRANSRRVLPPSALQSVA
T2 sequence (P08069 31-736 limits assumed): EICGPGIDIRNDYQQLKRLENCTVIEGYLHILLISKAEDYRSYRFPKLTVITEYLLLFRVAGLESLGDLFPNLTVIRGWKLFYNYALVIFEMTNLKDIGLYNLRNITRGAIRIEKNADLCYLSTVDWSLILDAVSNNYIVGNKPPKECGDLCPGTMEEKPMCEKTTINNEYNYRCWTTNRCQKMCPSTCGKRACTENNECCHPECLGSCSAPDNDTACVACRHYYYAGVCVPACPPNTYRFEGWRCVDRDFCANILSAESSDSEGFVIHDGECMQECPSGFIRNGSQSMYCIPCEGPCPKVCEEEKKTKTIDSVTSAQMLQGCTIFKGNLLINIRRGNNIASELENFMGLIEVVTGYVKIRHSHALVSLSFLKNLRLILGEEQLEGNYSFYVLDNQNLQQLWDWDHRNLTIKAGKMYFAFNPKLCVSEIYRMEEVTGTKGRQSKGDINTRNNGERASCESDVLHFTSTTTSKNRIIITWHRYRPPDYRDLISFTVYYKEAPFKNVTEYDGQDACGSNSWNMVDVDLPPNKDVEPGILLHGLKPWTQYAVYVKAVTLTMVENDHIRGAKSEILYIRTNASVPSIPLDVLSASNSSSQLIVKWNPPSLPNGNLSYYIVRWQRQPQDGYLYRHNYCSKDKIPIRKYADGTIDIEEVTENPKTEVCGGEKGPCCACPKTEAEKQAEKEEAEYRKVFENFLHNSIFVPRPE
T2 sequence (P08069 741-1367 limits assumed): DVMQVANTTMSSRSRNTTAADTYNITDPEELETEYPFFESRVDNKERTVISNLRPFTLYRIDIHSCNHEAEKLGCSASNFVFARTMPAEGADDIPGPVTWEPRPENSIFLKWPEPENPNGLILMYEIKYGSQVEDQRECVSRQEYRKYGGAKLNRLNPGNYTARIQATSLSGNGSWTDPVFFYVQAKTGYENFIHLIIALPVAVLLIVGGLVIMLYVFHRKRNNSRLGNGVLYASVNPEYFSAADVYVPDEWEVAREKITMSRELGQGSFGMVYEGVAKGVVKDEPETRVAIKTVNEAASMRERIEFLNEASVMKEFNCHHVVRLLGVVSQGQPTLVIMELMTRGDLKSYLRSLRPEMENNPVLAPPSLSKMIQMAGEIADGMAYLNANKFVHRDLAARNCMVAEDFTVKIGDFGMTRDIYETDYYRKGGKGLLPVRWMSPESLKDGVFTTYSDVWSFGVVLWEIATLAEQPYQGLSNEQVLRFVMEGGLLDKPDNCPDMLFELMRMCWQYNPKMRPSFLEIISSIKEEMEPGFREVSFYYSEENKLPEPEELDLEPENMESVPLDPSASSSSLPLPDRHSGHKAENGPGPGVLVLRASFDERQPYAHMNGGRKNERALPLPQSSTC
Sequence of N-lysine methyltransferase SMYD2 (Q9NRG4 whole entry): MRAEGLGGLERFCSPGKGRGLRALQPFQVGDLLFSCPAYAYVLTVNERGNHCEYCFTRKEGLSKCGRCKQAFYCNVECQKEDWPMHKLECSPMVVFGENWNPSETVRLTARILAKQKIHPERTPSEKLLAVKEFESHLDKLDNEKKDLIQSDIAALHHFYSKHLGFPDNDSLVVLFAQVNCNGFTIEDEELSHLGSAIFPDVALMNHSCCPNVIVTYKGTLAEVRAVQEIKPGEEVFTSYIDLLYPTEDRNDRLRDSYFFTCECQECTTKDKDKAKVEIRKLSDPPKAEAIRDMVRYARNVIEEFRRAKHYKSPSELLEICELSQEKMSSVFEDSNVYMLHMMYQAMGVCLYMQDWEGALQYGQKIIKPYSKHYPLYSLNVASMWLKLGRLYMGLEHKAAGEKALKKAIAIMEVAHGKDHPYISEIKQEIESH

For the molecule `Cc1c(-c2ccc(O)cc2)n(Cc2ccc(OCCN3CCCCCC3)cc2)c2ccc(O)cc12` [BAZEDOXIFENE], the IC50 in assay [1] was 3140 nM; in assay [2], 7450 nM.
Turning to `CN(c1ccccc1CNc1nc(Nc2ccc3c(c2)CC(=O)N3)ncc1C(F)(F)F)S(C)(=O)=O`, the 50% inhibitory concentration (IC50) in assay [3] came out at 6200 nM.
Consider `O=C1OC(=O)C2C3CCC(O3)C12` (centres undefined), for which the concentration for half-maximal inhibition (IC50) in assay [4] worked out at 21.8 µg/mL (≈ 130 µM); in [5], 17.7 µg/mL (≈ 105 µM); in assay [6] it was 12.8 µg/mL (≈ 76.3 µM).
`CCN(CC)CCCCNc1ncc2cc(-c3cc(OC)cc(OC)c3)c(NC(=O)NC(C)(C)C)nc2n1` [PD-173074]: in assay [7], the 50% inhibitory concentration (IC50) is 20 nM.
Consider `O=C(Cc1cccc(OC(F)(F)F)c1)Nc1ccc(CCCCc2nnc(NC(=O)Cc3ccccn3)s2)nn1`, for which the IC50 in assay [8] was 50 nM; in [9], 100 nM.
`Cc1ccsc1C(=O)Nc1cc(CN2CCN(C(=O)CO)CC2)ccc1/C=C/c1n[nH]c2ccccc12` [KW-2450]: the IC50 in [10] is 215 nM; in assay [11] it was 478 nM; in [12], 272 nM; in [13] it was 66 nM; in assay [14] it was below 2 nM; in [15], below 2 nM.
As for `O=C1COc2c(CCNCCN(C(=O)CCNCCc3ccc(Cl)c(Cl)c3)C3CCCCC3)ccc(O)c2N1`, half-maximal inhibition in assay [16] (IC50) was put at 20000 nM.
`Nc1ccccc1NC(=O)c1ccc(CNC(=O)OCc2cccnc2)cc1` [ENTINOSTAT]: the concentration for half-maximal inhibition (IC50) in assay [17] and in assay [18] was 1000 nM throughout.
For the molecule `CCOC(=O)c1cnn(-c2ccc(NC(=O)C(Cl)=C(Cl)Cl)cc2)c1C(F)(F)F`, the IC50 in assay [19] stood at 1000 nM.
As to `N#CCNC(=O)c1ccc(-c2ccnc(Nc3ccc(N4CCOCC4)cc3)n2)cc1` [MOMELOTINIB], the half-inhibitory concentration (IC50) in [20] was found to be 1000 nM; in assay [21], 1000 nM; in [22] (Homo sapiens, HCC70), 10000 nM; in assay [23] it was 1000 nM; in assay [24], 5000 nM.
As for `Nc1ccc(-c2ccc3ncc4ccc(=O)n(-c5cccc(C(F)(F)F)c5)c4c3c2)cn1`, the GR50 in [25] and in [22] was 0.01 µM in each case.
As to `O=C(NC[C@H](O)CN1CCc2ccccc2C1)c1cc(NC2COC2)ncn1`, the IC50 in assay [26] stood at 5000 nM; in [27] it was 1000 nM; in [28] it was 60000 nM.
On to `Cc1nc(Nc2ncc(C(=O)Nc3cc(NC(=O)c4cccc(C(F)(F)F)c4)ccc3C)s2)cc(N2CCN(CCO)CC2)n1`, for which the concentration for half-maximal inhibition (IC50) was found to be 6.1 nM in [20], 120 nM in assay [29], 230 nM in [30] and 9.1 nM in assay [31].
In the case of `CCN(CC)c1ccc(CNc2ccc(Cl)cc2)cc1`, the concentration for a half-maximal effect (EC50) was 2500 nM in [21]; 770 nM in [32]; 440 nM in assay [29]; 1200 nM in [33]; 2510 nM in [34].
As to `Fc1ccc(-c2ccc(Nc3nc(Cl)nc(Cl)n3)cc2)cc1`, in [35], half-maximal inhibition (IC50) required 10000 nM.
Turning to `Cc1sc2c(c1C)C(c1ccc(Cl)cc1)=N[C@@H](CC(=O)NCCCCCCCCCCNC(=O)C[C@@H]1N=C(c3ccc(Cl)cc3)c3c(sc(C)c3C)-n3c(C)nnc31)c1nnc(C)n1-2`, the half-inhibitory concentration (IC50) in [36] stood at 10.3 nM; in [37], 4.1 nM; in [38], 6.8 nM; in assay [39], 19 nM; in assay [40] it was 15 nM.

Source of the values: ChEMBL document CHEMBL5226297, “Small-Molecule Drug Discovery in Triple Negative Breast Cancer: Current Situation and Future Directions” (J Med Chem, 2021).
